Experimental findings from US20120245137A1 (Zalicus Pharmaceuticals Ltd., priority 2009, published 2012) are described below.

Where two headings read alike, the source gives them in different places.

Holding throughout (assay type): cell-based
The target in one assay is Human Cav 2.2 channels (Homo sapiens, UniProt Q00975). Nature of the assay: Fluorescent assay for CaV2.2 channels using potassium depolarization (VIPR/FLIPR). The note with it: FLIPR data. The essentials: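 Fluo-4 calcium fluorescence (480/535 nm) was recorded on VIPR or FLIPR after depolarization to 70 mM final potassium. Before this, cells were preincubated 30 min at 25 °C with compound in 4–30 mM potassium, so that state-dependent block could be assessed; the cells were HEK293 coexpressing Cav2.2, α2δ, β and Kir2.3.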

Assay [1] concerns the target T-type calcium channel (Homo sapiens, UniProt O43497). The assay is described as follows: T-type channel blocking, FLIPR data (Table 6). The conditions noted are these: CAv3.1. An excerpt:
(§1) Another method, high-throughput spectrophotometric assay, utilizes loading of the cell lines with a fluorescent dye sensitive to intracellular calcium concentration and subsequent examination of the effects of compounds on the ability of depolarization by potassium chloride or other means to alter intracellular calcium levels.

The target in assay [2] is T-type calcium channel (Homo sapiens, UniProt O95180). Nature of the assay: T-type channel blocking, FLIPR data (Table 6).
Description: as §1

The target in assay [3] is T1, CAv1.2 (Homo sapiens, UniProt Q13936). Nature of the assay: FLIPR data, CAv1.2 channel blocking (Table 6). The conditions noted are these: for CAv1.2 IC50 Ratio closed/inact.: ratio closed/inactivated IC50.
Assay [4] deals with T1, CAv1.2. Nature of the assay: L-type (CAv1.2) channel blocking, FLIPR data (Table 6).
[5] abbreviates: closed state, read-out: CAv2.2 IC50 Closed.
Setting [6] is: inactivated state, read-out: CAv2.2 IC50 Inact.
The mark [7] stands for this setting: CAv3.2, closed state, read-out: CAv3.2 IC50 Closed.
[8] abbreviates: CAv3.2, inactivated state, read-out: CAv3.2 IC50 Inact.
Where [9] appears, read: CAv3.2, ratio closed/inactivated IC50.
Setting [10] is: closed state, read-out: CAv1.2 IC50 Closed.
Where [11] appears, read: inactivated state, read-out: CAv1.2 IC50 Inact.

Sequence of Human Cav 2.2 channels (Q00975 whole entry): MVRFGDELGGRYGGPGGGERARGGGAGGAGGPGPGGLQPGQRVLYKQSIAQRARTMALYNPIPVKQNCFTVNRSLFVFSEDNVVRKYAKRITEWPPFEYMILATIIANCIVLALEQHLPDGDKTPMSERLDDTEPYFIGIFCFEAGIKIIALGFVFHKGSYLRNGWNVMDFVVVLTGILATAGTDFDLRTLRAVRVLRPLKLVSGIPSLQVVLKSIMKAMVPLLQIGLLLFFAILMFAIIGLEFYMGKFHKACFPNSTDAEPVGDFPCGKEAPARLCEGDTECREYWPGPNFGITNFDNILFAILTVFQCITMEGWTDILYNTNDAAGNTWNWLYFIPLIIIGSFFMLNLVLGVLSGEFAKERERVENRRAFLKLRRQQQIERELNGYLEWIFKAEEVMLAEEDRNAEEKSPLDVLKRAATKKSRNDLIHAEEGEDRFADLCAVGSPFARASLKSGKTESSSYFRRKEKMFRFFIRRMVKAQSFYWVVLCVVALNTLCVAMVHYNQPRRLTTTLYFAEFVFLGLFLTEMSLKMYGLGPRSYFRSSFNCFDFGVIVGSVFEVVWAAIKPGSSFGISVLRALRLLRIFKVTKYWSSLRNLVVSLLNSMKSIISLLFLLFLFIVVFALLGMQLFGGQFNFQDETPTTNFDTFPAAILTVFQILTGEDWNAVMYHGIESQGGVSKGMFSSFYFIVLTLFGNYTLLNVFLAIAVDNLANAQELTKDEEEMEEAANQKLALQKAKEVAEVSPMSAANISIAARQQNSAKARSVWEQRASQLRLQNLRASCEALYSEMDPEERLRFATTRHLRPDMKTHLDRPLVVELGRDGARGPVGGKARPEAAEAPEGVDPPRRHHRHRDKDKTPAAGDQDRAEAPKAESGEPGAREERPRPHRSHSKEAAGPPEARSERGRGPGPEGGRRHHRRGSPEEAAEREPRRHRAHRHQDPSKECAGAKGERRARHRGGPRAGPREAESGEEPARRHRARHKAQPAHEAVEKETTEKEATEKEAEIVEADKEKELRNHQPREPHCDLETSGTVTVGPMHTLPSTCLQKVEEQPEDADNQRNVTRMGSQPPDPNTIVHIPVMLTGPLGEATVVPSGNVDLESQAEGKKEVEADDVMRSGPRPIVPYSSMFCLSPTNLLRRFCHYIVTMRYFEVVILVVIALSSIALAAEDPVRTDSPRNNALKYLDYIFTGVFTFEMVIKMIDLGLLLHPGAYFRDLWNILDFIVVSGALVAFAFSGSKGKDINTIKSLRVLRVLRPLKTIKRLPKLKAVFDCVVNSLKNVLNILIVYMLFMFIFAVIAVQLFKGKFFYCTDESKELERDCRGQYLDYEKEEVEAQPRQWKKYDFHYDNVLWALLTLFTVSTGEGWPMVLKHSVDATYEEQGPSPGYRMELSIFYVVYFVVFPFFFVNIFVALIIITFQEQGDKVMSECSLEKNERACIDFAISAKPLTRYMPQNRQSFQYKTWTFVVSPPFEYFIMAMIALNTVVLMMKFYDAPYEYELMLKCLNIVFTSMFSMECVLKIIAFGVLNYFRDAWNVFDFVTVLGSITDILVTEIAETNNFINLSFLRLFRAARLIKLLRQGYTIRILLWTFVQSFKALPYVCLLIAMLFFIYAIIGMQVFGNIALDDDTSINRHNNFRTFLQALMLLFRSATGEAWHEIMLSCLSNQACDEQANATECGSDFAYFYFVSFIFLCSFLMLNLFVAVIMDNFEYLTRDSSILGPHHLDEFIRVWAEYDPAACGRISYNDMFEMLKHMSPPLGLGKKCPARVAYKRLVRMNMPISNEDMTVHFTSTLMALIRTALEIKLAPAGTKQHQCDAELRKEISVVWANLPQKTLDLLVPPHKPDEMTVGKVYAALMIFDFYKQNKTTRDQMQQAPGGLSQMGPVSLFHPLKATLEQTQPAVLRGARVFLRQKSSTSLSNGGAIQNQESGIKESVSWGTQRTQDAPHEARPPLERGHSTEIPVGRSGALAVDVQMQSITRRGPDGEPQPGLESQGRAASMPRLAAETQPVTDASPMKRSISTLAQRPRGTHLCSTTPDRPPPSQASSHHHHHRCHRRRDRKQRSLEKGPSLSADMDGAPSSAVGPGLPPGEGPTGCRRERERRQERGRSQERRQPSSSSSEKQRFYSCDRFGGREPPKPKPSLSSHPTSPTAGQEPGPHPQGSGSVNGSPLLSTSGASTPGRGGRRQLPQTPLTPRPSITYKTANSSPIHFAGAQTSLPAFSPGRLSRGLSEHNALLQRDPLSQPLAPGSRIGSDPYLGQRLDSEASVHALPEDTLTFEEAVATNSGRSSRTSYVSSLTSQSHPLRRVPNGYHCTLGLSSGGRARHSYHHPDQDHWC
Sequence of Human Cav 2.2 channels (P54289 25-1103 partner): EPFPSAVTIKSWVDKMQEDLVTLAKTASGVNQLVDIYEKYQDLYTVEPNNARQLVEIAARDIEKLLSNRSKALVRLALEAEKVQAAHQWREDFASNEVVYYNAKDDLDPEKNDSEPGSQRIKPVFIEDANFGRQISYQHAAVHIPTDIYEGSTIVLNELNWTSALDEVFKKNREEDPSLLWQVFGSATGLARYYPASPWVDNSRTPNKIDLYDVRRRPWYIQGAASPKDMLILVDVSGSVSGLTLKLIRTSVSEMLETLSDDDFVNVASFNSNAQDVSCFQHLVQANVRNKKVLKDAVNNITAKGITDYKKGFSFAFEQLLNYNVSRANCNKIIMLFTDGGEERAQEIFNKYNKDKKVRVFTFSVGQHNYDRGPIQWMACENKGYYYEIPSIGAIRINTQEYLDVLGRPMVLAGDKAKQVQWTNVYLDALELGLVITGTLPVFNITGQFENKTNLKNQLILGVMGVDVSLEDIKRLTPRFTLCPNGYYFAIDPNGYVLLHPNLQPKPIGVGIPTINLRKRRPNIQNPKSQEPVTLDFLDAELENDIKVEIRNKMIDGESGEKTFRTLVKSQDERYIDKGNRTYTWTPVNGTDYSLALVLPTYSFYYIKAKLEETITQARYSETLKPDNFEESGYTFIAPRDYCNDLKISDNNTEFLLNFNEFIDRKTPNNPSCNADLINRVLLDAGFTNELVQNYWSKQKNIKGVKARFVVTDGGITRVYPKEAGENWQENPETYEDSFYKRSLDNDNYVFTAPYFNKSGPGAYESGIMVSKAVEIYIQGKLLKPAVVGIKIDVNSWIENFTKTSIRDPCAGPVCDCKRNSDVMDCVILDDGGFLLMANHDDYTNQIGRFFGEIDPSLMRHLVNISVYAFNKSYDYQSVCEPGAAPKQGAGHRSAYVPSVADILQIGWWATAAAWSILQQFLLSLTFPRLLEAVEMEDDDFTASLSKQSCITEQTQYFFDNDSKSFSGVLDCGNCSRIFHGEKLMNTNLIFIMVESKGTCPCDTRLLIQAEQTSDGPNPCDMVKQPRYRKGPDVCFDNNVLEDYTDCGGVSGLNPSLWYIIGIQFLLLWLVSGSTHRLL
Sequence of Human Cav 2.2 channels (P54284 whole entry partner): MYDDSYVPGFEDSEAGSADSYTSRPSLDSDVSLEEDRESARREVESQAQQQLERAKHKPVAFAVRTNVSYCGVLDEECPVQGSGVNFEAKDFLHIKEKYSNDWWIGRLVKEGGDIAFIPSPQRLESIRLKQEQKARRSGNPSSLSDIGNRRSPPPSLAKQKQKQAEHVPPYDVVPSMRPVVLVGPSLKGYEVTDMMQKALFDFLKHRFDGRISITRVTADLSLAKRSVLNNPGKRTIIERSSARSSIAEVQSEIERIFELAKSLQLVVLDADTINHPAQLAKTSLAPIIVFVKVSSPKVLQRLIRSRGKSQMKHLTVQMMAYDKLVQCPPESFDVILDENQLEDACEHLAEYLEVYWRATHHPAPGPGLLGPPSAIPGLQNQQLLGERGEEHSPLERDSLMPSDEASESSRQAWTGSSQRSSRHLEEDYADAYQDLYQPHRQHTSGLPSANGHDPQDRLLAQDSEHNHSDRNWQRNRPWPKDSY

As a reminder, the IC50 is the midpoint of a concentration-inhibition curve. In the case of `CC(C)(C[C@H]1C[C@@H](NC(=O)c2cnc(C(F)(F)F)nc2)C1)S(=O)(=O)c1cccc(C(F)(F)F)c1` [Compound 734], the IC50 on Human Cav 2.2 channels (setting [5]) is 3.39 µM; on Human Cav 2.2 channels (setting [6]) it was 0.13 µM; at T-type calcium channel [1], not below 10 µM; on T-type calcium channel [2] (setting [7]), 8.7 µM; on T-type calcium channel [2] (setting [8]), 2.27 µM; at CAv1.2 [3] (setting [10]), not below 10 µM. On CAv1.2 [3] (setting [11]), the IC50 stood at 5.67 µM. In addition, the “CAv2.2 IC50 Ratio closed/inact.” value on Human Cav 2.2 channels (ratio closed/inactivated IC50) is reported as 26.1. Also, the “CAv3.2 IC50 Ratio closed/inact.” value on T-type calcium channel [2] (setting [9]) is recorded as 3.8. Besides, at CAv1.2 [3], the “CAv1.2 IC50 Ratio closed/inact.” value worked out at 1.8.

Consider `CC(C)(C[C@H]1C[C@@H](NC(=O)c2ccc(C(F)(F)F)cn2)C1)S(=O)(=O)c1cccc(C(F)(F)F)c1` [Compound 735], for which the 50% inhibitory concentration (IC50) on Human Cav 2.2 channels (setting [5]) amounted to 0.69 µM; at Human Cav 2.2 channels (setting [6]), 0.07 µM; on T-type calcium channel [1], 3.51 µM; at T-type calcium channel [2] (setting [7]) it was 4.55 µM; at T-type calcium channel [2] (setting [8]), 1.46 µM; on CAv1.2 [3] (setting [10]) it was 6.37 µM. Besides, on CAv1.2 [3] (setting [11]), the IC50 came to 3.71 µM. For the same compound, the “CAv2.2 IC50 Ratio closed/inact.” value on Human Cav 2.2 channels (ratio closed/inactivated IC50) is recorded as 9.9. Further, the “CAv3.2 IC50 Ratio closed/inact.” value at T-type calcium channel [2] (setting [9]) is listed as 3.1. Also, at CAv1.2 [3], the “CAv1.2 IC50 Ratio closed/inact.” value amounted to 1.7.

In the case of `CC(C)(C[C@H]1C[C@@H](NC(=O)c2ccc(C(F)(F)F)nc2)C1)S(=O)(=O)c1cccc(C(F)(F)F)c1` [Compound 736], the IC50 was 2.2 µM on Human Cav 2.2 channels (setting [5]); 0.13 µM on Human Cav 2.2 channels (setting [6]); not below 10 µM on T-type calcium channel [1]; 6.64 µM on T-type calcium channel [2] (setting [7]); 2.73 µM at T-type calcium channel [2] (setting [8]); not below 10 µM on CAv1.2 [3] (setting [10]). Further, on CAv1.2 [3] (setting [11]), the IC50 came to 3.32 µM. In addition, at Human Cav 2.2 channels (ratio closed/inactivated IC50), the “CAv2.2 IC50 Ratio closed/inact.” value is listed as 16.9. Besides, the “CAv3.2 IC50 Ratio closed/inact.” value on T-type calcium channel [2] (setting [9]) was determined as 2.4. On CAv1.2 [3], the “CAv1.2 IC50 Ratio closed/inact.” value was determined as 3.

For the compound `CC(C)(C[C@H]1C[C@@H](NC(=O)c2ccc(OCC(F)(F)F)nc2)C1)S(=O)(=O)c1cccc(C(F)(F)F)c1` [Compound 737], the IC50 is 0.86 µM on Human Cav 2.2 channels (setting [5]); 0.04 µM at Human Cav 2.2 channels (setting [6]); 2.18 µM on T-type calcium channel [1]; 2.06 µM at T-type calcium channel [2] (setting [7]); 0.52 µM on T-type calcium channel [2] (setting [8]); 4.23 µM at CAv1.2 [3] (setting [10]). For the same compound, the IC50 at CAv1.2 [3] (setting [11]) amounted to 1.28 µM. In addition, the “CAv2.2 IC50 Ratio closed/inact.” value at Human Cav 2.2 channels (ratio closed/inactivated IC50) is recorded as 21.5. Moreover, the “CAv3.2 IC50 Ratio closed/inact.” value on T-type calcium channel [2] (setting [9]) was 4. Also, the “CAv1.2 IC50 Ratio closed/inact.” value at CAv1.2 [3] is on record as 3.3.

For the compound `Cn1nc(C(F)(F)F)cc1C(=O)N[C@H]1C[C@@H](CC(C)(C)S(=O)(=O)c2cccc(C(F)(F)F)c2)C1` [Compound 738], the concentration for half-maximal inhibition (IC50) at Human Cav 2.2 channels (setting [5]) was 1.27 µM; at Human Cav 2.2 channels (setting [6]), 0.12 µM; at T-type calcium channel [1] it was 5.75 µM; at T-type calcium channel [2] (setting [7]), 2.25 µM; at T-type calcium channel [2] (setting [8]), 0.52 µM; on CAv1.2 [3] (setting [10]), 5.36 µM. Besides, the IC50 on CAv1.2 [3] (setting [11]) worked out at 2.34 µM. For the same compound, the “CAv2.2 IC50 Ratio closed/inact.” value at Human Cav 2.2 channels (ratio closed/inactivated IC50) is listed as 10.6. In addition, on T-type calcium channel [2] (setting [9]), the “CAv3.2 IC50 Ratio closed/inact.” value is given as 4.3. In addition, the “CAv1.2 IC50 Ratio closed/inact.” value on CAv1.2 [3] was found to be 2.3.

For the compound `CC(C)(C[C@H]1C[C@H](NC(=O)[C@H]2CCCC[C@@H]2N)C1)S(=O)(=O)c1cccc(C(F)(F)F)c1` [Compound 743], the half-inhibitory concentration (IC50) on Human Cav 2.2 channels (setting [5]) is 3.37 µM; on Human Cav 2.2 channels (setting [6]), 1.46 µM; at T-type calcium channel [2] (setting [8]) it was 10 µM; at CAv1.2 [4] (setting [10]), not below 10 µM; on CAv1.2 [4] (setting [11]), not below 10 µM. The “CAv2.2 IC50 Ratio closed/inact.” value at Human Cav 2.2 channels (ratio closed/inact.) was determined as 2.3.

With `CC(C)S(=O)(=O)c1cc(C(F)(F)F)cnc1C(=O)NC[C@H]1C[C@H](S(=O)(=O)c2cccc(Cl)c2)C1` [Compound 770], the IC50 at Human Cav 2.2 channels (setting [5]) is 10 µM; on Human Cav 2.2 channels (setting [6]), 2.29 µM; at T-type calcium channel [2] (setting [7]), not below 10 µM; on T-type calcium channel [2] (setting [8]), 10 µM; on CAv1.2 [4] (setting [10]) it was not below 10 µM; at CAv1.2 [4] (setting [11]), not below 10 µM. At Human Cav 2.2 channels (ratio closed/inact.), the “CAv2.2 IC50 Ratio closed/inact.” value is recorded as 4.4. The “CAv3.2 IC50 Ratio closed/inact.” value at T-type calcium channel [2] (CAv3.2, ratio closed/inact.) was found to be 1.

Take `O=C(NC[C@H]1C[C@H](S(=O)(=O)c2cccc(Cl)c2)C1)c1ccc(Cl)cn1` [Compound 772]: the half-inhibitory concentration (IC50) on Human Cav 2.2 channels (setting [6]) was 5.67 µM; at T-type calcium channel [2] (setting [7]), not below 10 µM; at T-type calcium channel [2] (setting [8]) it was 10 µM; at CAv1.2 [4] (setting [10]), not below 10 µM. In addition, the “CAv2.2 IC50 Ratio closed/inact.” value on Human Cav 2.2 channels (ratio closed/inact.) is recorded as 1.8. Moreover, the “CAv3.2 IC50 Ratio closed/inact.” value at T-type calcium channel [2] (CAv3.2, ratio closed/inact.) is 1.
